Here are results for 5 molecules from PubChem BioAssay (NCI).

Among the test systems are P388 leukemia; DLD-1 colon; DMS 273 small cell lung; P388/ADR leukemia; M19-MEL melanoma; KM20L2 colon; SN12K1 renal; HS 578T breast; BT-549 breast; RXF-631 renal; LXFL 529 NSCLC.
What all share (test): NCI tumour cell line growth inhibition, 48 h

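Test compounds were applied to cells in 96-well plates for 48 hours at 5 doses. TGI: concentration producing complete growth inhibition.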

Regarding `O=C(O)CCCCCCCCC(=O)O`, the TGI in the test on P388 leukemia was greater than 281 µM; in the test with DLD-1 colon it was greater than 500 µM; in the test on DMS 273 small cell lung, greater than 500 µM; in the test with P388/ADR leukemia it was greater than 500 µM; in the test on M19-MEL melanoma it was greater than 500 µM; in the test on KM20L2 colon it was greater than 500 µM. For the same molecule, the TGI in the test with SN12K1 renal is greater than 500 µM.
Molecule `COc1ccc([C@H]2C=[N+]([O-])O[C@H](OC3CCCC3)[C@@H]2OC(C)=O)cc1OC` returned a TGI with HS 578T breast of 78.5 µM.
On to `O=S1(=O)C[C@@H](NCc2ccccc2)[C@H](NCc2ccccc2)C1`, for which the TGI in the test with BT-549 breast and with HS 578T breast was greater than 100 µM in each case.
On to `O=C1c2cccc(O)c2C(=O)c2c(O)cc(CO)cc21`, for which the TGI in the test with DLD-1 colon, in the test with RXF-631 renal, with DMS 273 small cell lung, with KM20L2 colon and in the test on LXFL 529 NSCLC was greater than 100 µM throughout.
Molecule `Cc1cc(C)c(/C=C(\C(=C/c2c(C)cc(C)cc2C)[N+](=O)[O-])[N+](=O)[O-])c(C)c1` came in with a TGI with BT-549 breast greater than 100 µM.
